Test results from the NIST ThermoML archive (doi:10.1016/j.tca.2010.01.021).
± gives the expanded uncertainty stated by the source.

Test: molar heat capacity at constant pressure
Conditions: 101.33 kPa, Crystal, Small (less than 1 g) adiabatic calorimetry

N.O=C(O)c1ccccc1 [ammonium benzoate]
Conditions | molar heat capacity at constant pressure [J/K/mol]
80.23 K | 65.17 ± 0.43
81.77 K | 66.19 ± 0.43
84.03 K | 67.46 ± 0.44
86.2 K | 68.89 ± 0.45
88.38 K | 69.94 ± 0.45
90.56 K | 71.51 ± 0.49
92.57 K | 72.72 ± 0.49
94.64 K | 74.19 ± 0.5
96.64 K | 75.8 ± 0.5
98.62 K | 77.01 ± 0.51
100.55 K | 78.03 ± 0.51
102.41 K | 79.33 ± 0.52
104.34 K | 80.86 ± 0.52
106.2 K | 81.8 ± 0.53
107.97 K | 83.16 ± 0.53
109.83 K | 84.27 ± 0.54
111.6 K | 85.3 ± 0.54
113.37 K | 86.37 ± 0.55
115.15 K | 87.62 ± 0.55
116.84 K | 88.74 ± 0.56
118.61 K | 90.01 ± 0.56
120.31 K | 91.47 ± 0.57
122.97 K | 92.89 ± 0.57
126.27 K | 94.89 ± 0.58
129.18 K | 96.99 ± 0.59
132.16 K | 98.85 ± 0.6
135.06 K | 100.95 ± 0.6
138.04 K | 102.77 ± 0.61
141.02 K | 104.57 ± 0.62
144.01 K | 106.24 ± 0.63
147 K | 108.24 ± 0.63
149.93 K | 110.5 ± 0.64
152.9 K | 112.26 ± 0.65
155.86 K | 113.91 ± 0.66
158.85 K | 116.09 ± 0.66
161.8 K | 118.15 ± 0.67
164.77 K | 120.01 ± 0.68
167.74 K | 121.97 ± 0.69
170.72 K | 124.05 ± 0.7
173.71 K | 125.52 ± 0.7
176.67 K | 127.13 ± 0.71
179.65 K | 129.42 ± 0.72
183.76 K | 131.94 ± 0.73
187.79 K | 134.2 ± 0.74
190.78 K | 136.42 ± 0.75
193.75 K | 138.62 ± 0.75
196.71 K | 140.39 ± 0.76
199.69 K | 142.17 ± 0.77
202.71 K | 144.2 ± 0.78
205.7 K | 146.13 ± 0.78
208.67 K | 148.09 ± 0.79
211.63 K | 149.94 ± 0.8
214.62 K | 152.01 ± 0.81
217.63 K | 153.98 ± 0.82
220.61 K | 155.64 ± 0.82
223.59 K | 157.46 ± 0.83
226.57 K | 159.31 ± 0.84
229.56 K | 161.33 ± 0.85
232.46 K | 163.12 ± 0.85
235.52 K | 164.85 ± 0.86
238.67 K | 166.71 ± 0.87
242.46 K | 169.25 ± 0.88
246.17 K | 170.85 ± 0.88
249.15 K | 172.58 ± 0.89
252.13 K | 174.29 ± 0.9
255.04 K | 176.25 ± 0.91
258.02 K | 177.81 ± 0.91
261.08 K | 179.36 ± 0.92
264.07 K | 180.92 ± 0.92
267.13 K | 182.91 ± 0.93
270.11 K | 184.57 ± 0.94
273.1 K | 186.5 ± 0.95
276.05 K | 188.1 ± 0.95
279 K | 189.37 ± 0.96
281.97 K | 190.96 ± 0.96
284.95 K | 192.56 ± 0.97
287.93 K | 194.07 ± 0.98
291 K | 195.71 ± 0.98
293.98 K | 197.29 ± 0.99
296.96 K | 199.56 ± 1
299.95 K | 200.88 ± 1
302.93 K | 203.11 ± 1
305.83 K | 204.55 ± 1
308.82 K | 205.93 ± 1
311.72 K | 207.7 ± 1
314.7 K | 209.41 ± 1
317.68 K | 210.92 ± 1
320.75 K | 212.63 ± 1.1
323.73 K | 214.01 ± 1.1
326.71 K | 215.52 ± 1.1
329.78 K | 216.96 ± 1.1
332.76 K | 218.8 ± 1.1
335.75 K | 220.31 ± 1.1
338.73 K | 222.08 ± 1.1
341.71 K | 223.72 ± 1.1
344.61 K | 225.36 ± 1.1
347.6 K | 226.81 ± 1.1
350.5 K | 228.38 ± 1.1
353.48 K | 229.7 ± 1.1
356.55 K | 231.21 ± 1.1
359.53 K | 232.72 ± 1.1
362.59 K | 234.1 ± 1.1
365.58 K | 235.61 ± 1.1
368.56 K | 237.58 ± 1.1
371.54 K | 239.09 ± 1.2
374.53 K | 240.86 ± 1.2
377.51 K | 242.44 ± 1.2
380.49 K | 243.95 ± 1.2
383.4 K | 245.72 ± 1.2
386.3 K | 247.56 ± 1.2
389.28 K | 249.39 ± 1.2
392.35 K | 251.17 ± 1.2
395.33 K | 252.68 ± 1.2
398.31 K | 254.12 ± 1.2
